Laboratory results: the kinase profiling compilation of Christmann-Franck et al. (2016)
Values joined by “and” are separate entries in the source; they are usually repeats but may differ in a detail not shown here. Equal values may be shown once.

Assays:
Experiment in all cases: radiometric filter-binding kinase assay, Kinase HotSpot
Conditions in all cases: compound 0.5 µM; ATP 10 µM
RPS6KA4 KD2 (human) = RPS6KA4 KD2 (human) (UniProt O75676)
INSR (human) = INSR (human) (UniProt P06213)
ULK3 (human) = ULK3 (human) (UniProt Q6PHR2)
FGR (human) = FGR (human) (UniProt P09769)
YES1 (human) = YES1 (human) (UniProt P07947)
STK38 (human) = STK38 (human) (UniProt Q15208)
CHEK1 (human) = CHEK1 (human) (UniProt O14757)
ABL2 (human) = ABL2 (human) (UniProt P42684)
LYN (human) = LYN (human) (UniProt P07948)
PLK3 (human) = PLK3 (human) (UniProt Q9H4B4)
MAP3K10 (human) = MAP3K10 (human) (UniProt Q02779)
STK25 (human) = STK25 (human) (UniProt O00506)
MYO3B (human) = MYO3B (human) (UniProt Q8WXR4)
DSTYK (human) = DSTYK (human) (UniProt Q6XUX3)
PIM3 (human) = PIM3 (human) (UniProt Q86V86)
LCK (human) = LCK (human) (UniProt P06239)
ERBB2 (human) = ERBB2 (human) (UniProt P04626)
TAOK1 (human) = TAOK1 (human) (UniProt Q7L7X3)
ADRBK2 (human) = ADRBK2 (human) (UniProt P35626)
JAK2 JH1 JH2 (human) = JAK2 JH1 JH2 (human) (UniProt O60674)
TYRO3 (human) = TYRO3 (human) (UniProt Q06418)
CAMKK2 (human) = CAMKK2 (human) (UniProt Q96RR4)
RPS6KA1 KD1 KD2 (human) = RPS6KA1 KD1 KD2 (human) (UniProt Q15418)
BRAF (human) = BRAF (human) (UniProt P15056)
OXSR1 (human) = OXSR1 (human) (UniProt O95747)
CDC42BPA (human) = CDC42BPA (human) (UniProt Q5VT25)
CAMK1D (human) = CAMK1D (human) (UniProt Q8IU85)
ADRBK1 (human) = ADRBK1 (human) (UniProt P25098)
WEE1 (human) = WEE1 (human) (UniProt P30291)
TLK2 (human) = TLK2 (human) (UniProt Q86UE8)
ULK2 (human) = ULK2 (human) (UniProt Q8IYT8)
PAK7 (human) = PAK7 (human) (UniProt Q9P286)
EPHA6 (human) = EPHA6 (human) (UniProt Q9UF33)
NTRK2 (human) = NTRK2 (human) (UniProt Q16620)
NUAK1 (human) = NUAK1 (human) (UniProt O60285)
PRKG1 (human) = PRKG1 (human) (UniProt Q13976)
SRMS (human) = SRMS (human) (UniProt Q9H3Y6)
DYRK1B (human) = DYRK1B (human) (UniProt Q9Y463)
EGFR (human) = EGFR (human) (UniProt P00533)
EPHB4 (human) = EPHB4 (human) (UniProt P54760)
DAPK2 (human) = DAPK2 (human) (UniProt Q9UIK4)

Chain of LYN (human) (P07948 whole entry, looked up): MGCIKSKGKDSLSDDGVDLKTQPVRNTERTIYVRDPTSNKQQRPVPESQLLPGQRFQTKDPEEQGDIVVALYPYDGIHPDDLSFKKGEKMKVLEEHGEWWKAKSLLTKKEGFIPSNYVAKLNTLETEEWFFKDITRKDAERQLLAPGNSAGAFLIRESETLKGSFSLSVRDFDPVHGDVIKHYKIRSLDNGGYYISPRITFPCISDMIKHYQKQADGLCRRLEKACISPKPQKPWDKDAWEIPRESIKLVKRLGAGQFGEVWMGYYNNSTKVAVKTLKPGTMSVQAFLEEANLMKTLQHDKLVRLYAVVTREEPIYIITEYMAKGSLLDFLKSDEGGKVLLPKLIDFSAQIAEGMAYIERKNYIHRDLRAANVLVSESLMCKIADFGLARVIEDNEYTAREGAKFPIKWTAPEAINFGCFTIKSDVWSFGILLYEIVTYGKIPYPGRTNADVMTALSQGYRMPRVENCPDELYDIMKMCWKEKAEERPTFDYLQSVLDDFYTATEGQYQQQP
Chain of STK38 (human) (Q15208 whole entry, looked up): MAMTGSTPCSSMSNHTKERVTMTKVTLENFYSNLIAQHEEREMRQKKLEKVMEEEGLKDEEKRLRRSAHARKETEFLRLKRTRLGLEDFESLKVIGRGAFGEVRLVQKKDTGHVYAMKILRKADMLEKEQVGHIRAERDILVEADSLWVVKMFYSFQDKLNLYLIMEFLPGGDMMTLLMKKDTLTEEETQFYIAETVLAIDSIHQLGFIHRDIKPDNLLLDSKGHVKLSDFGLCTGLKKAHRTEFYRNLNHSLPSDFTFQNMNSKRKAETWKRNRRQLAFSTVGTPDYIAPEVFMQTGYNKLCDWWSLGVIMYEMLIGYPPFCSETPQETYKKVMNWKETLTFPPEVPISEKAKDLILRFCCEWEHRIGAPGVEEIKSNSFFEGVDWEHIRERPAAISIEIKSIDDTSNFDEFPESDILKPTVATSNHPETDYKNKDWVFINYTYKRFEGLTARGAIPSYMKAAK
Chain of ULK3 (human) (Q6PHR2 whole entry, looked up): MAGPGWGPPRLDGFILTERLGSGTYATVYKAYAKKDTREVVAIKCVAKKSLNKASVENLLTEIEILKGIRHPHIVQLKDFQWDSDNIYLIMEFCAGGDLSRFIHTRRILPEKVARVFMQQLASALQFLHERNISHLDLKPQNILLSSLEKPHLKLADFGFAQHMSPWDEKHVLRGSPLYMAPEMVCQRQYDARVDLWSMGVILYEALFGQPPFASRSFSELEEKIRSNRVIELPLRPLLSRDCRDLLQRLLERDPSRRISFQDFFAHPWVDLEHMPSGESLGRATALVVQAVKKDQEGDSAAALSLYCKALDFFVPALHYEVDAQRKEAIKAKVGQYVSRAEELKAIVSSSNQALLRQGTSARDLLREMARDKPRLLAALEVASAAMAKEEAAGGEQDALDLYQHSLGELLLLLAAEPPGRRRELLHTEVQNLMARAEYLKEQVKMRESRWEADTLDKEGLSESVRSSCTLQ
Chain of RPS6KA4 KD2 (human) (O75676 whole entry, looked up): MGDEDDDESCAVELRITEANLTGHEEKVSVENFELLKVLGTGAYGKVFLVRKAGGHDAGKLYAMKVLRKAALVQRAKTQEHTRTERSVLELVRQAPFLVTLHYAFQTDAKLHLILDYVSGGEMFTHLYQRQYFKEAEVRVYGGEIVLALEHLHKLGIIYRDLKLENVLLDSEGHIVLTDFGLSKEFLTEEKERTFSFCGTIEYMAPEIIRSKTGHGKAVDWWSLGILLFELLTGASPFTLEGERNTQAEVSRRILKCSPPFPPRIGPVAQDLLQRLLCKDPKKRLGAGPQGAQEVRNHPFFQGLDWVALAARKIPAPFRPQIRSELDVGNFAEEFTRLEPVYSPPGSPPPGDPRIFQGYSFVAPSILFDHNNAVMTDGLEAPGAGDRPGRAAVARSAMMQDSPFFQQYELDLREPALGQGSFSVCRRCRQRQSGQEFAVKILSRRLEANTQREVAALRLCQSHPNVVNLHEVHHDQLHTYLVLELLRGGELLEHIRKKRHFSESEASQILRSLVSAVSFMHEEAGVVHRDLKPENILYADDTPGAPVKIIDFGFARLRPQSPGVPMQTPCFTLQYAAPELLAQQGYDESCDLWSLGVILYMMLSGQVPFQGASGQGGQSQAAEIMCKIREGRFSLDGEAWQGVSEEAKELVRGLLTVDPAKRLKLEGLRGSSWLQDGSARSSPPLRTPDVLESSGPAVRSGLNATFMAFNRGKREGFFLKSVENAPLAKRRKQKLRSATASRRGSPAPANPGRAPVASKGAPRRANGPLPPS
Chain of FGR (human) (P09769 whole entry, looked up): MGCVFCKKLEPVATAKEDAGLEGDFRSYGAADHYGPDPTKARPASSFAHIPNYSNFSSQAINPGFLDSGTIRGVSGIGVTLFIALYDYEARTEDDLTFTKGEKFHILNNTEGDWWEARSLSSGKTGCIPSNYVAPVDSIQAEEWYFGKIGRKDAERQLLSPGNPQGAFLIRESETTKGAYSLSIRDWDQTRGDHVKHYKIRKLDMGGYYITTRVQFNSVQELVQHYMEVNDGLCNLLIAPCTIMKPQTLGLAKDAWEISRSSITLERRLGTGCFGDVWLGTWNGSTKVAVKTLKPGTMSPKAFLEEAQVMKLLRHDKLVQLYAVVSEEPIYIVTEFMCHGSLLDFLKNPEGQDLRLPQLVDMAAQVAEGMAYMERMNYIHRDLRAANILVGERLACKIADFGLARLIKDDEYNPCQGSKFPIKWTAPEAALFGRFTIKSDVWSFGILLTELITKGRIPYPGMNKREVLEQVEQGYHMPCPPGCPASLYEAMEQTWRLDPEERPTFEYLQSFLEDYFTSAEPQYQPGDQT
Chain of YES1 (human) (P07947 whole entry, looked up): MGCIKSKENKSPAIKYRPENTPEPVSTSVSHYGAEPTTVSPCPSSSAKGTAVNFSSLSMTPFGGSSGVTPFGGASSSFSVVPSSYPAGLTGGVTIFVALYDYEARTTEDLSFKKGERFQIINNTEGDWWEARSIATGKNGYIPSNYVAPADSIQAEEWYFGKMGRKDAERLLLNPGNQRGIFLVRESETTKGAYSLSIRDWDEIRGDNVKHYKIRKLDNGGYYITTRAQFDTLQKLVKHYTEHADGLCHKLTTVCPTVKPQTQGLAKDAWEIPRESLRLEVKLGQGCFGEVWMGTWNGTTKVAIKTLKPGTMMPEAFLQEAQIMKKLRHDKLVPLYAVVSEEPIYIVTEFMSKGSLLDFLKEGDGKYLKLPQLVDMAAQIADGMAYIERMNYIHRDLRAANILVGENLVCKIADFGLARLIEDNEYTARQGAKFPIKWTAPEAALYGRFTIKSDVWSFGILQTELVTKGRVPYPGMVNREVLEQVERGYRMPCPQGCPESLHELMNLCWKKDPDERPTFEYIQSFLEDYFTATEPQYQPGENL
Chain of ABL2 (human) (P42684 whole entry, looked up): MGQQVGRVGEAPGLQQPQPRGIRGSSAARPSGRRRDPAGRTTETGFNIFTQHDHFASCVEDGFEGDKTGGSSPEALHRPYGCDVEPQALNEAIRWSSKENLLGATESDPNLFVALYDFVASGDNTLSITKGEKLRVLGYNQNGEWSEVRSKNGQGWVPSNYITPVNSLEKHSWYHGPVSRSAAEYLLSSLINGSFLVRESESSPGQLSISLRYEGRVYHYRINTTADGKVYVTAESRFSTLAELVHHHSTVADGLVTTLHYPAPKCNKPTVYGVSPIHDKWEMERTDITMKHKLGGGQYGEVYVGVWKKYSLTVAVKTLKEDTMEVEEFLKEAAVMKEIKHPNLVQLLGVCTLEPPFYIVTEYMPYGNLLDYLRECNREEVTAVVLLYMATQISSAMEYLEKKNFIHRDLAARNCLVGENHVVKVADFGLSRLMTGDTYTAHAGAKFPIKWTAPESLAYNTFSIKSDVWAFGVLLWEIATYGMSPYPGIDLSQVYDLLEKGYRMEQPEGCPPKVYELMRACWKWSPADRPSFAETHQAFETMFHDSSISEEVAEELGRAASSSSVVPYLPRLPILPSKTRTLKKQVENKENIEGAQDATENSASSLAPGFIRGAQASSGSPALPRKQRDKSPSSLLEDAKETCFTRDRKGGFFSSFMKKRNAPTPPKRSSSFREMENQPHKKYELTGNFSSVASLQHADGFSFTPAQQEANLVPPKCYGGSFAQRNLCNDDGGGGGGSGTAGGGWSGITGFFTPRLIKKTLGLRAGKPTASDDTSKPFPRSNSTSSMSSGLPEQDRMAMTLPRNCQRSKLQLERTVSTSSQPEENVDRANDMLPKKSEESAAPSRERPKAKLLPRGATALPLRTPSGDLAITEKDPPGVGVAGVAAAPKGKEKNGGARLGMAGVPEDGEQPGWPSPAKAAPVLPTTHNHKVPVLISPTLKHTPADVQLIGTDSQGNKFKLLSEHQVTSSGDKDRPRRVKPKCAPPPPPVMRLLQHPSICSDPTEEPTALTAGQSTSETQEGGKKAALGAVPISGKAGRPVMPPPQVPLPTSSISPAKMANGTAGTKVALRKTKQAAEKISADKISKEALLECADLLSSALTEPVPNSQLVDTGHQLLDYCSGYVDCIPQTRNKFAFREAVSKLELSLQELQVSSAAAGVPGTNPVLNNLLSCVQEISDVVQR
Chain of CHEK1 (human) (O14757 whole entry, looked up): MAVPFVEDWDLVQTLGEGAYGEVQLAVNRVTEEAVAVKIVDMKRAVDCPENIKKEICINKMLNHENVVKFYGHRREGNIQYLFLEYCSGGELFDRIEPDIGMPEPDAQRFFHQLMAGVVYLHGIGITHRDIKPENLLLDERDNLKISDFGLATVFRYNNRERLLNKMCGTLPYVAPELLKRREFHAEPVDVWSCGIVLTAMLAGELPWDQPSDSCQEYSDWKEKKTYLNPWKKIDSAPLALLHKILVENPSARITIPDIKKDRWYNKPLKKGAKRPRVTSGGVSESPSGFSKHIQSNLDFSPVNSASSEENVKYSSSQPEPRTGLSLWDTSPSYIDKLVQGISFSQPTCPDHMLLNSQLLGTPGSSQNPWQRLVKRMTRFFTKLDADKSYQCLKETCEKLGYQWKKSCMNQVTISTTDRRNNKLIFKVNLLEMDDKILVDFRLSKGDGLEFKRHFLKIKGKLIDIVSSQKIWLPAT

For `CN[C@@H]1C[C@H]2O[C@@](C)([C@@H]1OC)n1c3ccccc3c3c4c(c5c6ccccc6n2c5c31)C(=O)NC4`, the residual activity (RPS6KA4 KD2 (human)) was 6.74%, the residual activity (INSR (human)) was 3.14% and the residual activity (ULK3 (human)) was 1.82%. For the same molecule, the residual activity (FGR (human)) was 0.266%, the residual activity (YES1 (human)) was 4.48% and the residual activity (STK38 (human)) was 10%. The residual activity (CHEK1 (human)) was 1.63%, the residual activity (ABL2 (human)) was 5.25% and the residual activity (LYN (human)) was 1.18% and 5.72%.

With `Nc1ncnc2c1cnn2-c1ccccc1` the residual activity (PLK3 (human)) was 94.6%, the residual activity (RPS6KA4 KD2 (human)) was 106% and the residual activity (MAP3K10 (human)) was 88.6%. The residual activity (STK25 (human)) was 93.2%, the residual activity (MYO3B (human)) was 93.4% and the residual activity (DSTYK (human)) was 94.5%. The residual activity (PIM3 (human)) was 91.4%, the residual activity (INSR (human)) was 103% and the residual activity (LCK (human)) was 95.5%. It also gave a residual activity (ERBB2 (human)) of 107%, a residual activity (ULK3 (human)) of 98.9% and a residual activity (TAOK1 (human)) of 89.5%. It also gave a residual activity (ADRBK2 (human)) of 105%, a residual activity (JAK2 JH1 JH2 (human)) of 91.6% and a residual activity (TYRO3 (human)) of 102%. The residual activity (FGR (human)) was 93.8%, the residual activity (CAMKK2 (human)) was 86.8% and the residual activity (RPS6KA1 KD1 KD2 (human)) was 79.5%. It also gave a residual activity (BRAF (human)) of 93.6%, a residual activity (OXSR1 (human)) of 92.6% and a residual activity (CDC42BPA (human)) of 90.2%. For the same molecule, the residual activity (CAMK1D (human)) was 95.6%, the residual activity (ADRBK1 (human)) was 99.4% and the residual activity (WEE1 (human)) was 90%. For the same molecule, the residual activity (YES1 (human)) was 93.7%, the residual activity (TLK2 (human)) was 110% and the residual activity (ULK2 (human)) was 95.1%. For the same molecule, the residual activity (PAK7 (human)) was 97%, the residual activity (EPHA6 (human)) was 83.2% and the residual activity (STK38 (human)) was 98.6%. It also gave a residual activity (CHEK1 (human)) of 92.5%, a residual activity (NTRK2 (human)) of 88.7% and a residual activity (NUAK1 (human)) of 93.2%. For the same molecule, the residual activity (PRKG1 (human)) was 107% and 91.3%, the residual activity (SRMS (human)) was 104% and the residual activity (ABL2 (human)) was 93%. The residual activity (LYN (human)) was 102% and 99.7%, the residual activity (DYRK1B (human)) was 93% and the residual activity (EGFR (human)) was 73%. For the same molecule, the residual activity (EPHB4 (human)) was 103% and the residual activity (DAPK2 (human)) was 96.7%.
